In US5230899A, “Methods and compositions for making liposomes” (SmithKline Beecham Corporation, priority 1991, dated 1993):

What was measured:
[1] = Efficiency of encapsulation / entrapment of drugs in DPPC:oleic acid:Arg (1:1:1) liposomes; format: physicochemical; conditions: 10 mg/ml DPPC:oleic acid:Arg (1:1:1) liposomes
Experimental: A number of drugs were encapsulated with 10 mg/ml DPPC:oleic acid:[MUT]:1:1) liposomes to illustrate medicament encapsulation for use as a drug delivery system.

in vivo = conditions: rat, iv, 5 mg/kg
Experimental: The bioavailibility of indomethacin in a gel formulation was compared with that of a suspenison of indomethacin, both being compared with an IV dose. Rats were dosed with 5 mg/Kg of indomethacin. Oleic acid, arginine and phosphatide #5 (described above) in the a the ratio 1:1:1 was used to make the gel. […] Blood levels were measured 0-30 hours.

CNCC(O)c1ccc(OC(=O)C(C)(C)C)c(OC(=O)C(C)(C)C)c1 (stereo not drawn) [Dipivalyl Epinephrine]
% Entrapment ([1]; pH 7.1 PBS): 80%

CC(C(=O)O)c1ccc(-c2ccccc2)c(F)c1 (stereo not drawn) [Flurbiprofen]
% Entrapment ([1]; pH 7.8 PBS): 90%

COc1ccc2c(c1)c(CC(=O)O)c(C)n2C(=O)c1ccc(Cl)cc1 [indomethacin]
C0 (in vivo): 117 µg/mL
